The subject of this assay is P388 leukemia ip, CD2F1 mice, survival T/C. As to the kind of experiment: NCI In Vivo Anticancer Drug Screen. Data for tumor model P388 Leukemia (intraperitoneal) in CD2F1 (CDF1) mice. Particulars: endpoint: median survival time, higher = longer survival. Put shortly: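 Mice carrying the transplanted tumor received test compound or vehicle. Survival was recorded in each group, and the value is the treated-group measurement divided by that of the vehicle-treated control group.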

The mark [1] stands for this setting: dose: 6.25 mg/kg/injection, schedule: Q01DX005 (ip), vehicle: saline with Tween-80.
Where [2] appears, read: dose: 12.5 mg/kg/injection, schedule: Q01DX005 (ip), vehicle: saline with Tween-80.
Where [3] appears, read: dose: 25.0 mg/kg/injection, schedule: Q01DX005 (ip), vehicle: saline with Tween-80.
The mark [4] stands for this setting: dose: 60.0 mg/kg/injection, schedule: Q01DX005 (ip), vehicle: Klucel (hydroxypropylcellulose) (HPC).
Where [5] appears, read: dose: 120.0 mg/kg/injection, schedule: Q01DX005 (ip), vehicle: Klucel (hydroxypropylcellulose) (HPC).
The mark [6] stands for this setting: dose: 240.0 mg/kg/injection, schedule: Q01DX005 (ip), vehicle: Klucel (hydroxypropylcellulose) (HPC).
The mark [7] stands for this setting: dose: 50.0 mg/kg/injection, schedule: Q01DX009 (ip), vehicle: saline with Tween-80.
The mark [8] stands for this setting: dose: 100.0 mg/kg/injection, schedule: Q01DX009 (ip), vehicle: saline with Tween-80.
The mark [9] stands for this setting: dose: 200.0 mg/kg/injection, schedule: Q01DX009 (ip), vehicle: saline with Tween-80.
Setting [10] is: dose: 400.0 mg/kg/injection, schedule: Q01DX009 (ip), vehicle: saline with Tween-80.
The mark [11] stands for this setting: dose: 100.0 mg/kg/injection, schedule: Q04DX003 (ip), vehicle: saline.
[12] abbreviates: dose: 200.0 mg/kg/injection, schedule: Q04DX003 (ip), vehicle: saline.
The mark [13] stands for this setting: dose: 50.0 mg/kg/injection, schedule: Q01DX005 (ip), vehicle: saline with Tween-80.
Setting [14] is: dose: 100.0 mg/kg/injection, schedule: Q01DX005 (ip), vehicle: saline with Tween-80.
Where [15] appears, read: dose: 50.0 mg/kg/injection, schedule: Q01DX009 (ip), vehicle: saline.
Setting [16] is: dose: 200.0 mg/kg/injection, schedule: Q01DX005 (ip), vehicle: saline with Tween-80.

Values joined by “and” are separate entries in the source; they are usually repeats but may differ in a detail not shown here. Equal values may be shown once. Inconclusive results and toxic doses are left out.

With `O=S(=O)(CC(O)C(Cl)(Cl)Cl)N1CCCCC1` (stereo not given), the T/C is 101 % of control (dose: 50.0 mg/kg/injection, schedule: Q01DX009 (ip), vehicle: Klucel (hydroxypropylcellulose) (HPC)); 95 % of control (dose: 100.0 mg/kg/injection, schedule: Q01DX009 (ip), vehicle: Klucel (hydroxypropylcellulose) (HPC)); 100 % of control (dose: 200.0 mg/kg/injection, schedule: Q01DX009 (ip), vehicle: Klucel (hydroxypropylcellulose) (HPC)).

As for `O=c1oc2ccccc2n1Cc1ccc(Cl)cc1`, the T/C under setting [1] was 102 % of control, the T/C under setting [2] was 93 % of control and the T/C under setting [3] was 99 % of control.

Consider `Cc1n[nH]c(=O)n2c1nc1ccccc12`, for which the T/C under setting [4] is 95 % of control, the T/C under setting [5] was 95 % of control and the T/C under setting [6] is 92 % of control.

As to `O=C(N/N=C/c1ccccc1O)N/N=C/c1ccccc1O`, the T/C by setting is: under setting [7], 96 % of control; under setting [8], 96 % of control; under setting [9], 96 % of control; under setting [10], 87 % of control.

For the molecule `Cc1cc(Br)ccc1N`, the T/C under setting [8] is 110 % of control, the T/C under setting [9] is 110 % of control and the T/C under setting [10] is 105 % of control.

For `CCOC(=O)NC(NC(=O)OCC)c1ccc(Cl)cc1`, the T/C was 99 % of control under setting [11]; 94 % of control under setting [12]; 107 % of control (dose: 400.0 mg/kg/injection, schedule: Q04DX003 (ip), vehicle: saline).

As to `CCCCSc1ccc(NN=O)nc1`, the T/C by setting is: (dose: 1.56 mg/kg/injection, schedule: Q01DX009 (ip), vehicle: water) 118 % of control; (dose: 6.25 mg/kg/injection, schedule: Q01DX009 (ip), vehicle: water) 151 % of control.

With `O=C(Nc1ccccc1)Oc1ccc(/C=N/S(=O)(=O)c2cccc([N+](=O)[O-])c2)cc1`, the T/C was 96 % of control under setting [7], 98 % of control under setting [8] and 118 % of control under setting [9].

`COC(=O)C1=NOC2C(=O)N(c3ccccc3)C(=O)C12` (stereo not given): the T/C by setting is: under setting [13], 96 % of control; under setting [14], 101 % of control.

As for `O=C(c1cccnc1)C(CCc1ccccn1)c1ccccn1` (stereo not given), the T/C is 100 % of control under setting [11] and 100 % of control under setting [12].

On to `Cc1ccc2occ(/C=N/NC(N)=S)c(=O)c2c1`, for which the T/C runs as follows: under setting [13], 90 % of control; under setting [14], 97 % of control.

As to `CN/N=C(/C)C(=O)O`, the T/C (dose: 50.0 mg/kg/injection, schedule: Q01DX005 (ip), vehicle: saline) was 106 % of control; the T/C (dose: 100.0 mg/kg/injection, schedule: Q01DX005 (ip), vehicle: saline) was 99 % of control; the T/C (dose: 200.0 mg/kg/injection, schedule: Q01DX005 (ip), vehicle: saline) is 99 % of control.

In the case of `COc1cc2c(cc1OC)[C@H](C(=O)O)[C@@H](c1ccc(OC(C)C)c(OC)c1)N(C)C2=O`, the T/C by setting is: (dose: 60.0 mg/kg/injection, schedule: Q01DX005 (ip), vehicle: saline with Tween-80) 95 % of control; (dose: 120.0 mg/kg/injection, schedule: Q01DX005 (ip), vehicle: saline with Tween-80) 100 % of control; (dose: 240.0 mg/kg/injection, schedule: Q01DX005 (ip), vehicle: saline with Tween-80) 100 % of control.

`CC(=O)Nc1nnc(-c2coc3ccc(C)cc3c2=O)s1`: the T/C is 99 % of control under setting [1]; 88 % of control and 89 % of control under setting [2]; 86 % of control under setting [3]; 86 % of control under setting [13].

Turning to `CC1CC[P+](c2ccccc2)(c2ccccc2)c2c1ccc1ccccc21` (stereo not given), the T/C is, setting by setting: (dose: 6.25 mg/kg/injection, schedule: Q04DX002 (ip), vehicle: saline) 118 % of control; (dose: 12.5 mg/kg/injection, schedule: Q04DX002 (ip), vehicle: saline) 108 % of control.

Regarding `CC(N=[N+]=[N-])n1nnnc1-c1ccccc1` (stereo not given), the T/C was 101 % of control (dose: 25.0 mg/kg/injection, schedule: Q01DX001 (ip), vehicle: Klucel (hydroxypropylcellulose) (HPC)); 121 % of control (dose: 50.0 mg/kg/injection, schedule: Q01DX001 (ip), vehicle: Klucel (hydroxypropylcellulose) (HPC)); 113 % of control and 120 % of control (dose: 100.0 mg/kg/injection, schedule: Q01DX001 (ip), vehicle: Klucel (hydroxypropylcellulose) (HPC)); 91 % of control (dose: 200.0 mg/kg/injection, schedule: Q01DX001 (ip), vehicle: Klucel (hydroxypropylcellulose) (HPC)).

For the molecule `Cc1cc(OC(=O)Nc2cc([N+](=O)[O-])ccc2C)c(Br)cc1Cl`, the T/C is 98 % of control (dose: 12.5 mg/kg/injection, schedule: Q01DX009 (ip), vehicle: saline); 93 % of control (dose: 25.0 mg/kg/injection, schedule: Q01DX009 (ip), vehicle: saline); 117 % of control under setting [7]; 100 % of control under setting [15].

`COC1OCCC(n2c(C)cc3c(N)ncnc32)C1O` (stereo not given): the T/C is 101 % of control and 102 % of control (dose: 50.0 mg/kg/injection, schedule: Q01DX005 (ip), vehicle: Klucel (hydroxypropylcellulose) (HPC)); 100 % of control under setting [4]; 100 % of control and 103 % of control (dose: 100.0 mg/kg/injection, schedule: Q01DX005 (ip), vehicle: Klucel (hydroxypropylcellulose) (HPC)); 103 % of control under setting [5]; 93 % of control (dose: 200.0 mg/kg/injection, schedule: Q01DX005 (ip), vehicle: Klucel (hydroxypropylcellulose) (HPC)); 96 % of control under setting [6].

For `C[n+]1ccc(-c2nc(-c3cc[n+](C)cc3)nc(-c3cc[n+](C)cc3)n2)cc1`, the T/C is 102 % of control (dose: 25.0 mg/kg/injection, schedule: Q01DX001 (ip), vehicle: saline with Tween-80); 99 % of control (dose: 50.0 mg/kg/injection, schedule: Q01DX001 (ip), vehicle: saline with Tween-80); 108 % of control (dose: 100.0 mg/kg/injection, schedule: Q01DX001 (ip), vehicle: saline with Tween-80).

Consider `CCCCC(CC)CN=Cc1c(O)c(O)c(C(C)C)c2cc(C)c(-c3c(C)cc4c(C(C)C)c(O)c(O)c(C=NCC(CC)CCCC)c4c3O)c(O)c12` (stereo not given), for which the T/C under setting [13] is 93 % of control, the T/C under setting [14] was 88 % of control and the T/C under setting [16] is 86 % of control.

Consider `CNC(=O)OCC1=C([Si](C)(C)C)C(=O)C(OC)=C(OC)C1=O`, for which the T/C runs as follows: under setting [13], 98 % of control; under setting [14], 100 % of control.

Regarding `Cc1ccc(N2C(=O)c3cccc4c(N)c(S(=O)(=O)O)cc(c34)C2=O)cc1`, the T/C was 108 % of control under setting [15]; 104 % of control (dose: 100.0 mg/kg/injection, schedule: Q01DX009 (ip), vehicle: saline); 100 % of control (dose: 200.0 mg/kg/injection, schedule: Q01DX009 (ip), vehicle: saline).

Turning to `O=C(c1ccccc1)C(CC(C(=O)c1ccccc1)c1ccccc1)c1ccccc1` (stereo not given), the T/C reads like this: under setting [13], 108 % of control; under setting [14], 96 % of control; under setting [16], 99 % of control.
